Experiments:
artificial skin = assay: Quantitative analysis of ceramide in artificial skin; assay type: cell-based; parameters: C18SM: unit not given here; details: for C18SM / ceramide in artificial skin (ng/mg skin): artificial skin, LC analysis, corrected for skin weight
Method: Artificial skin was weighed and put in a 4-mL glass vial. After adding 2400 μL of CHCl3/MeOH (=½) and 100 μL of IS STD, the artificial skin was cut into small pieces with scissors. After sonication for 30 minutes, solutions mixing sodium lauryl sulfate (SLS) to each of dodecanoic acid 2-dodecanoylamino-3-hydroxy-2-hydroxymethyl-propyl ester obtained from the Example 2, phosphate buffered saline (PBS), octyl methoxycinnamate (OMC) and PC-104, as described in Table 2, were filtered through a PTFE syringe filter, and 1250 μL of each filtrate was transferred to an EP tube.
After completely removing the solvent using a speed vacuum dryer, the residue was redissolved by adding 100 μL of an analytical mobile phase. After centrifugation, only the supernatant was taken and analyzed after transferring to an LC vial. The concentration of ceramide was corrected for the weight of the artificial skin.

[1] = tested on: Keraskin™ artificial skin; assay: Recovery of damaged artificial skin (measurement of transepithelial electrical resistance); assay type: cell-based; details: for Change of TEER (%): Keraskin artificial skin, TEER after 24 h post-incubation divided by the initial value
Method: Transepithelial electrical resistance was measured in order to test recovery of damaged artificial skin by the compound of Example 2. Dodecanoic acid 2-dodecanoylamino-3-hydroxy-2-hydroxymethyl-propyl ester obtained from the Example 2 and phosphate buffered saline (PBS), octyl methoxycinnamate (OMC) and PC-104 were tested for comparison.
Transepithelial electrical resistance (TEER) of Keraskin™ purchased from MCTT was measured after 22 hours of pre-incubation. After placing the Keraskin™ on a 6-well plate, 400 μL of a medium was added in an insert and 5 mL of the medium was added outside the insert such that an even level was achieved inside and outside the insert. Then, measurement was made with the electrode tips of a resistance meter inside and outside the insert. TEER was measured for all the inserts, prior to the test, after treatment with the substances of Example 2 and Comparative Examples 1-3 and 24 hours after post-incubation. The TEER after the post-incubation was divided by the initial value to calculate the change in %.

[2] = test substance mixed with sodium lauryl sulfate (SLS)

For `CCCCC(CC)COC(=O)C=Cc1ccc(OC)cc1` (stereo not shown) [Comparative Example 2, octyl methoxycinnamate], the C18SM (artificial skin; PBS instead of SLS) was 1747.3, the “ceramide in artificial skin (ng/mg skin)” value (artificial skin; PBS instead of SLS) was 990.8 ng/mg skin and the C18SM (artificial skin; [2]) was 843.6. For the same compound, the “ceramide in artificial skin (ng/mg skin)” value (artificial skin; [2]) was 758.3 ng/mg skin and the “Change of TEER (%)” value [1] was 30.9%.
For `CCCCCCCCCCCCCCCC(=O)N(CCO)CC(O)CN(CCO)C(=O)CCCCCCCCCCCCCCC` [Comparative Example 3], the C18SM (artificial skin; [2]) was 1141.1, the “ceramide in artificial skin (ng/mg skin)” value (artificial skin; [2]) was 995.5 ng/mg skin and the “Change of TEER (%)” value [1] was 35.7%.
With `CCCCCCCCCCCC(=O)NC(CO)(CO)COC(=O)CCCCCCCCCCC` [Example 2, dodecanoic acid 2-dodecanoylamino-3-hydroxy-2-hydroxymethyl-propyl ester] the C18SM (artificial skin; [2]) was 1811.5, the “ceramide in artificial skin (ng/mg skin)” value (artificial skin; [2]) was 1152.4 ng/mg skin and the “ceramide content in the artificial skin, in words” value (artificial skin; compared with PC-104) was “higher than that for PC-104”. The “Change of TEER (%)” value [1] was 70.8% and the “effect of recovering damaged artificial skin (TEER), in words” value ([1]; compared with PC-104) was “higher than the conventionally used PC-104”.
